Test in all cases: inhibition of tumour cell growth, NCI panel, 48 h
For assay [1], the system named is RXF 393 renal.
Assay [2] concerns RPMI-8226 leukemia.
The test system of assay [3] is HS 578T breast.
For assay [4], the system named is MDA-MB-231 breast.
Assay [5] has as its system KM12 colon.
Assay [6] deals with SNB-75 CNS.
In assay [7] the test system is SN12C renal.
Assay [8] has as its system MALME-3M melanoma.
The subject of assay [9] is NCI-H226 lung.
Assay [10] has as its system UO-31 renal.

The text below walks through data of PubChem BioAssay (NCI).

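Assay format: 96-well plates, 48-hour exposure. At the GI50, growth is halved. TGI: concentration producing complete growth inhibition.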 Some results are limits rather than exact numbers.

As to `O=C1C(Cl)=C(Nc2cccc(Cl)c2)C(=O)N1Cc1ccc(Cl)cc1`, the GI50 was 0.778 µM in assay [1]; 0.266 µM in [2]; 0.913 µM in assay [3]; 0.216 µM in assay [4]; 2.83 µM in assay [5]; 1.48 µM in assay [6]. Also, the GI50 was 1.24 µM in assay [7], 0.137 µM in assay [8], 0.119 µM in assay [9] and 1.74 µM in assay [10]. The TGI in [1] was 22.6 µM; in assay [2], 3.37 µM; in [3], 11.1 µM; in assay [4], 1.22 µM; in [5], 14.2 µM; in assay [6], 14.6 µM. For the same compound, the TGI in assay [7] was 5.93 µM; in assay [8], 2.84 µM; in assay [9], 1.37 µM; in assay [10], 24.5 µM.
For `CC(C)Cn1cnc2c(SCc3ccc(Cl)cc3Cl)nc(N)nc21`, the TGI was more than 100 µM in assay [1]; 74.8 µM in assay [2]; more than 100 µM in assay [3]; more than 100 µM in [4]; more than 100 µM in [5]; more than 100 µM in assay [6]. The TGI in assay [7] was more than 100 µM; in assay [8], 71.6 µM; in assay [10] it was more than 100 µM.
As to `COc1ccc2[nH]cc(-c3ccc(-c4c[nH]c5ccc(OC)cc45)s3)c2c1`, the GI50 in assay [1] is 3.51 µM; in [2], 2.83 µM; in assay [3], 8.99 µM; in [4], 2.88 µM; in [5], 2.37 µM; in assay [6], 7.12 µM. In addition, the GI50 in [7] is 11.1 µM; in [8], 9.13 µM; in assay [9] it was 8.95 µM; in [10], 2.9 µM. Also, the TGI in assay [1] was determined as 13.6 µM; in [2], 21 µM; in [3], 44.6 µM; in [4] it was 8.55 µM; in assay [5], 6.67 µM; in assay [6], 19.5 µM. Also, the TGI is 33.6 µM in assay [7], 22.4 µM in [8], more than 42.9 µM in [9] and 13.5 µM in assay [10].
Regarding `C[C@H](NC(=O)[C@@H](C)N)[C@H](Oc1ccc2c(cnn2-c2ccc(F)cc2)c1)c1ccc2c(c1)OCCO2`, the GI50 in [1] is 3.58 µM; in assay [2] it was 1.17 µM; in assay [3], 3.67 µM; in assay [4], 1.93 µM; in assay [5] it was 2.13 µM; in assay [6], 3.15 µM. The GI50 in [7] was 1.29 µM; in assay [8], 1.5 µM; in assay [9], 2.64 µM; in [10], 1.39 µM. Moreover, the TGI in assay [1] was found to be 11.2 µM; in assay [2], 3.75 µM; in assay [3], 13.1 µM; in [4], 4.69 µM; in assay [5], 5.15 µM; in assay [6], 10.8 µM. Further, the TGI turned out to be 4.27 µM in [7], 3.09 µM in [8], 15.8 µM in [9] and 3.27 µM in assay [10].
Regarding `N#CC1(C#N)C2(c3ccccc3)OC(c3ccccc3)(c3cc4ccccc4cc32)C1(C#N)C#N`, the TGI in assay [1] came to 13.8 µM; in [2], 5.34 µM; in assay [3], 72.2 µM; in assay [4], 31.9 µM; in assay [5] it was 23.7 µM; in [6], 30.1 µM. The TGI in assay [7] was found to be 36.2 µM; in assay [8] it was 37.9 µM; in assay [9], 37.2 µM; in assay [10], 26.5 µM.
For `CCOC(=O)/C(C=Nc1ccc(-c2nc3ccccc3[nH]2)cc1)=C(/C)O`, the GI50 in [2] was 8.12 µM; in assay [3], 11.4 µM; in assay [4], 9.65 µM; in [5], 7.8 µM; in assay [7] it was 14.5 µM; in assay [10], 10.3 µM. The TGI in [2] is 40.1 µM; in assay [3] it was 30.5 µM; in assay [4] it was 31.3 µM; in assay [5] it was 24 µM; in assay [7], more than 50 µM; in [10] it was 31.1 µM.
With `COc1ccc(C(=S)N2CCN(c3cccc(C)c3)CC2)cc1OC`, the GI50 was 6.05 µM in assay [1]; 3.16 µM in assay [3]; 5.85 µM in assay [4]; 2.82 µM in assay [5]; 2.16 µM in [6]; 6.85 µM in [7]. Besides, the GI50 is 3.34 µM in assay [8], more than 100 µM in assay [9] and 4.37 µM in [10]. Further, the TGI in assay [1] was more than 100 µM; in assay [3], 31.7 µM; in assay [4], more than 100 µM; in assay [5], more than 100 µM; in [6], 11.9 µM; in assay [7] it was more than 100 µM. The values for the TGI in assay [8], in [9] and in assay [10] were 84.4 µM, more than 100 µM and more than 100 µM, respectively.
`C=CCN=c1sc2c(n1NC(=O)c1cc3ccc1CCc1ccc(cc1)CC3)C(=O)c1ccccc1C2=O`: the GI50 in [1] is 1.35 µM; in [3], 2.04 µM; in assay [4] it was 1.27 µM; in assay [5] it was 2.68 µM; in [6] it was 0.843 µM; in assay [7] it was 1.22 µM. Besides, the GI50 was 0.383 µM in assay [8], 1.61 µM in assay [9] and 0.496 µM in assay [10]. Also, the TGI in assay [1] was found to be 2.71 µM; in assay [3], 6.93 µM; in assay [4], 6.68 µM; in assay [5], 8.8 µM; in assay [6] it was 2.77 µM; in assay [7] it was 2.79 µM. Also, the results for the TGI in assay [8], in assay [9] and in assay [10] were 1.58 µM, 3.35 µM and 2.09 µM, respectively.
